{"source": "patent US20050221359A1", "about": "“Cospeptin, cosmedin and their uses” (The Board of Trustees of the Leland Stanford Junior …, priority 2004, published 2005)", "key": {"[1]": {"tested_on": "normal Sprague-Dawley rats", "assay": "Effects of cospeptin on blood pressure and heart rate (tail-cuff method)", "assay_type": "in vivo, rat", "conditions": "intraperitoneal administration, conscious normal rats", "procedure": "Effects of cospeptin on blood pressure and heart rate in normal […] rats. Blood pressure measurements in conscious male Sprague-Dawley rats (7-9 weeks of age) were made in animals preadapted to the measurement procedure. Indirect systolic pressure was determined by a programmable NIBP system using the tail-cuff method (Columbus Instruments, Columbus, Ohio). Following attachment of the pressure transducer, rats were left undisturbed for 10 min before baseline measurements that spanned a 15-min interval. Following baseline measurements, rats were injected intraperitoneally with varying doses of hormones. Blood pressure and heart rate were monitored for 50 min at 25-sec intervals. Changes in blood pressure were calculated as the average of thirty measurements performed within each 5-min interval."}, "[2]": {"tested_on": "cospeptin receptors in the pituitary", "assay": "Displacement of 125I-Tyr0-cospeptin E binding in pituitary (competition studies)", "set-up": "species or system rat", "conditions": "competition with 125I-Tyr0-cospeptin E", "procedure": "(§1) Radiolabeling of cospeptin. Peptide iodination was performed according to the IODO-GEN procedure (Pierce, Upland, Ind.). The mixture of Tyr0-cospeptin E (20 μg) and 1 mCi [^125I] Nal was transferred to precoated IODO-GEN vials before incubation at room temperature for 4 min. The ^125I-labeled peptide was applied to a Sep-Pak C18 cartridge (Waters, Milford, Mass.) for purification and was eluted with 60% acetonitrile/0.1%TFA. The purified tracer was stored at −20° C.\n(§2) Receptor binding experiments. Homogenates were prepared from different tissues of adult rats. Binding assays were performed in glass tubes. Routinely, tissue homogenates were incubated in 100 μl of binding buffer (PBS with 0.1% bovine serum albumin) for 16 h at room temperature with varying concentrations of ^125I-Tyr0-cospeptin E (100, 000 cpm˜2 nM) in the presence or absence of unlabelled Tyr0-cospeptin E (in 5,000 fold excess). After incubation, the tubes were centrifuged for 10 min at 10,000×g, and the pellet was washed twice in ice-cold PBS. Finally, Tyr0-cospeptin E bound to the tissues was counted using a gamma-spectrophotometer. Specifically bound counts were calculated by subtracting unspecific counts determined in the presence of 5,000-fold excess of nonlabeled peptide from total counts bound to the tissues. For displacement ^125I-Tyr0-cospeptin E binding, increasing concentrations of Tyr0-cospeptin E or other peptides or analogues (cospeptin E, cospeptin A, cospeptin B, cospeptin D, cospeptin F or cosmedin B) were added."}, "[3]": {"tested_on": "C57/BL6 male mice", "assay": "Effects of peptides on gastric emptying activity", "assay_type": "in vivo, mouse", "conditions": "intraperitoneal injection, fed mice, stomach weighed after treatment", "procedure": "Effects of peptides on gastric emptying activity Eight-week-old C57/BL6 male mice deprived of food for 20 h were given food pellets for 90 min before intraperitoneal injection with different hormones or saline. After treatment, mice were deprived of food again and killed 90 min later. The stomach was excised at the pylorus and cardia before weighing. Gastric emptying was calculated by comparing the stomach weight of treated mice to the stomach weight of control mice killed at the time of hormone injection. The rates of gastric emptying were calculated by the formula (wet weight of stomach in fed animals killed at 0 h minus wet weight at […] after treatment/wet weight of stomach in fed animals killed at 0 h)×100."}, "[4]": {"tested_on": "rat ileal tissue strips", "assay": "Ileum contraction assay (organ bath, ileal muscle strips)", "conditions": "for muscle contraction of ileal strips: cumulative concentrations 10 nM to 10 μM; for magnitude of contraction relative to maximum response to muscarinic agonist 5-methylfurmethide: normalised to 5-methylfurmethide maximum", "procedure": "Ileum contraction assay. Female rats (˜350 g) were euthanized with CO2 and the abdominal cavity was opened to expose the intestines. A 3-cm length of ileum was removed, cleared of any adhering tissue and longitudinal strips of ileal muscle (2×5 mm) were cut. On average, six preparations were obtained from each animal. The tissues were suspended in 20-ml organ baths containing Krebs-Henseleit solution maintained at 32° C. containing 2.5 mM Ca^2+ and gassed continuously with 95% O2/5% CO2. The tissues were placed under a loading tension of 1 g. The tissue was equilibrated for 90 min after which a dose response curve of the peptide of interest was obtained at 0.5 log unit cumulative incremental concentrations from 10 nM to 10 μM."}, "[5]": {"target": "cospeptin E receptor in pituitary tissues", "assay": "Saturation binding of 125I-Tyr0-cospeptin E to pituitary homogenate", "conditions": "saturation curve, rat pituitary gland", "procedure": "as §1\nas §2, with “For displacement ^125I-Tyr0-cospeptin E binding, increasing concentrations of Tyr0-cospeptin E or other peptides or analogues (cospeptin E, cospeptin A, cospeptin B, cospeptin D, cospeptin F or cosmedin B) were added.” left out"}}, "note": "“Also recorded” adds a separate entry of the source."}
{"substance": "cospeptin A: human cospeptin Form A, SEQ ID NO: 6, FYPIYFRPLMRLEEYKKEQAINRAGIVQEDVQPPGLKVWSDPFG (KRNWTPQAMLYLKGAQGHRFISDQSRRK)", "values": [{"measurement": "blood pressure", "setting": "[1]", "result": "minimal effects"}, {"measurement": "heart rate", "setting": "[1]", "result": "decreased heart rate"}, {"measurement": "order of affinity to the cospeptin receptors", "setting": "[2]", "result": "cospeptin E=Tyr0-cospeptin E>cospeptin A,B>>cospeptin F>>cosmedin"}]}
{"substance": "cospeptin B: human cospeptin Form B, SEQ ID NO: 7, PLMRLEEYKKEQAINRAGIVQEDVQPPGLKVWSDPFG (KRNWTPQAMLYLKGAQGRRFLSDQSRRK)", "values": [{"measurement": "blood pressure", "setting": "[1]", "result": "suppressed blood pressure"}, {"measurement": "order of affinity to the cospeptin receptors", "setting": "[2]", "result": "cospeptin E=Tyr0-cospeptin E>cospeptin A,B>>cospeptin F>>cosmedin"}, {"measurement": "gastric emptying activity", "setting": "[3]", "result": "exhibited gastric emptying activities; also recorded: effectively inhibits gastric emptying"}]}
{"substance": "cospeptin F: human cospeptin Form F, SEQ ID NO: 11, VWSDPFG (FYPIYFRPLLRLEEYQKEQAVNRAGIVQEDVQPPGLKVWSDPFGRK; rat)", "values": [{"measurement": "order of affinity to the cospeptin receptors", "setting": "[2]", "result": "cospeptin E=Tyr0-cospeptin E>cospeptin A,B>>cospeptin F>>cosmedin"}]}
{"substance": "human cosmedin Form B, SEQ ID NO: 4, NWTPQAMLYLKGAQG; presumed amidated at carboxyl terminus [cosmedin B]", "values": [{"measurement": "order of affinity to the cospeptin receptors", "setting": "[2]", "result": "cospeptin E=Tyr0-cospeptin E>cospeptin A,B>>cospeptin F>>cosmedin"}, {"measurement": "muscle contraction of ileal strips", "setting": "[4]", "result": "concentration dependent muscle contraction"}, {"measurement": "muscle contraction of ileal strips", "setting": "[4]; listed as cosmedin-B", "result": "produced a concentration-dependent muscle contraction; also recorded: direct action of cosmedin-B on muscle contraction"}, {"measurement": "magnitude of contraction relative to maximum response to muscarinic agonist 5-methylfurmethide", "setting": "[4]", "result": "comparable to that of the acetylcholine muscarinic receptor agonist 5-methylfurmethide"}, {"measurement": "magnitude of contraction relative to maximum response to muscarinic agonist 5-methylfurmethide", "setting": "[4]; listed as cosmedin-B", "result": "comparable to that mediated by the muscarinic receptor stimulation"}, {"measurement": "potency pA50", "setting": "[4]; rat ileal tissue strips", "result": "6.05±0.17"}, {"measurement": "gastric emptying activity", "setting": "[3]", "result": "effectively inhibits gastric emptying"}, {"measurement": "gastric emptying activity", "setting": "[3]; listed as cosmedin-B", "result": "suppressed gastric emptying activity in a dose-dependent manner"}]}
{"substance": "human cospeptin Form E, SEQ ID NO: 10, AGIVQEDVQPPGLKVWSDPFG [cospeptin E]", "values": [{"measurement": "Kd", "setting": "[5]", "result": 5, "unit": "nM"}, {"measurement": "blood pressure", "setting": "[1]", "result": "suppressed blood pressure"}, {"measurement": "heart rate", "setting": "[1]", "result": "decreased heart rate"}, {"measurement": "order of affinity to the cospeptin receptors", "setting": "[2]", "result": "cospeptin E=Tyr0-cospeptin E>cospeptin A,B>>cospeptin F>>cosmedin"}]}
